Laboratory results published in ChEMBL document CHEMBL6120956, “Discovery of a Potent, Orally Active, and Long-Lasting P2X7 Receptor Antagonist as a Preclinical Candidate for Delaying the Progression of Chronic Kidney Disease” (J Med Chem, 2024).
Calls of active or inactive are those of the source. No cut-off for these calls is given here.

Legend:
[1] = biological target: T1, P2X purinoceptor 7 (Mus musculus) (UniProt Q9Z1M0); experiment: Antagonist activity against mouse P2X7 receptor expressed in ATP-stimulated HEK293 cells assessed as influx of PI at 200 nM by fluorescence dye uptake assay relative to control; assay type: cell-based; design: scale not given: the % may be the effect or the level left
T1 sequence (whole entry): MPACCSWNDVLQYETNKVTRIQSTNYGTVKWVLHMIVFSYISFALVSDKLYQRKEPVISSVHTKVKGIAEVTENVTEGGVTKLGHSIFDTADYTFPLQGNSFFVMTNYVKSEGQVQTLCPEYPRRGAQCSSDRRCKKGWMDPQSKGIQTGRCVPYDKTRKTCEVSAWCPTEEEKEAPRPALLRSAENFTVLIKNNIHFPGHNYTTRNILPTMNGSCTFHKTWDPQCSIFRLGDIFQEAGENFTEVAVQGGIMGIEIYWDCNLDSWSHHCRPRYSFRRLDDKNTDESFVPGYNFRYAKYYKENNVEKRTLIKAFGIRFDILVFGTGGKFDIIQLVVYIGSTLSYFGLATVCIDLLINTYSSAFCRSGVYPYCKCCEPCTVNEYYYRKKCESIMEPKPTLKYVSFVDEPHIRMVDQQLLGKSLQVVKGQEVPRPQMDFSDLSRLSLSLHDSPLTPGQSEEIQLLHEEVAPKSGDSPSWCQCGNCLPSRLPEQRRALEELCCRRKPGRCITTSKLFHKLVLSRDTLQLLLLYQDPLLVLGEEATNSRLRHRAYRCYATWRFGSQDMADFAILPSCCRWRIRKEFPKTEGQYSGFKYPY

[2] = biological target: T1, P2X purinoceptor 7 (Mus musculus); experiment: Antagonist activity against mouse P2X7 receptor expressed in ATP-stimulated HEK293 cells assessed as influx of PI at 1 uM by fluorescence dye uptake assay relative to control; assay type: cell-based; design: scale not given: the % may be the effect or the level left
[3] = Metabolic stability in human liver microsomes assessed as half life; assay type: ADME, Microsome
[4] = Metabolic stability in human liver microsomes assessed as clearance; assay type: ADME, Microsome; conditions: read-out: CLH
[5] = Metabolic stability in mouse liver microsomes assessed as half life; assay type: ADME, Microsome
[6] = biological target: T2, P2X purinoceptor 7 (Mus musculus, UniProt Q9Z1M0); experiment: Antagonist activity against mouse P2X7 receptor expressed in ATP-stimulated HEK293 cells assessed as influx of PI by fluorescence dye uptake assay relative to control; assay type: cell-based
T2 sequence (Q9Z1M0 whole entry): T1 sequence (whole entry)

[7] = Metabolic stability in mouse liver microsomes assessed as clearance; assay type: ADME, Microsome; conditions: read-out: CLH
[8] = Tmax in male BALB/c mouse at 10 mg/kg, po single administration measured upto 72 hrs by LC-MS/MS analysis; assay type: ADME, organism-based; conditions: in vivo
[9] = Half life in male BALB/c mouse at 10 mg/kg, po single administration measured upto 72 hrs by LC-MS/MS analysis; assay type: ADME, organism-based; conditions: in vivo
[10] = Cmax in male BALB/c mouse at 10 mg/kg, po single administration measured upto 72 hrs by LC-MS/MS analysis; assay type: ADME, organism-based; conditions: in vivo
[11] = AUC (0 to t) in male BALB/c mouse at 10 mg/kg, po single administration measured upto 72 hrs by LC-MS/MS analysis; assay type: ADME, organism-based; conditions: in vivo
[12] = Clearance in male BALB/c mouse at 10 mg/kg, po single administration measured upto 72 hrs by LC-MS/MS analysis; assay type: ADME, organism-based; conditions: in vivo

Row | Compound | Activity [1] | Activity [2] | other results
1 | CS(=O)(=O)c1ccc(-c2ncc(C(=O)NCc3cn(-c4cccc(Br)n4)nn3)s2)cc1 | 10.7% | 45% | 
2 | CS(=O)(=O)c1ccc(-c2ncc(C(=O)NCc3cn(-c4cc(-c5cccc(C(F)(F)F)c5)ccn4)nn3)s2)cc1 | 13.3% | 27.4% | 
3 | CS(=O)(=O)c1ccc(-c2ncc(C(=O)NCc3cn(-c4ccncc4Br)nn3)s2)cc1 | 25.9% | 41% | 
4 | CS(=O)(=O)c1ccc(-c2ncc(C(=O)NCc3cn(-c4cc(NC5CC(F)(F)C5)ccn4)nn3)s2)cc1 |  |  | half-life [3]: > 2 h; CLint scaled [4]: < 12 mL/min/kg; half-life [5]: 0.67 h; IC50 [6]: 138 nM; CLint scaled [7]: 142 mL/min/kg
5 | CS(=O)(=O)c1ccc(-c2nc(C(=O)NCc3cn(-c4cc(Br)ccn4)nn3)cs2)cc1 |  |  | Tmax [8]: 1.17 h; half-life [9]: 1.91 h; Cmax [10]: 1300 ng/mL; AUC(0-t) at 72 h [11]: 6510 ng·h/mL; CL/F [12]: 25.8 mL/min/kg
6 | CS(=O)(=O)c1ccc(-c2ncc(C(=O)NCc3cn(-c4cc(-c5cncc(C(F)(F)F)c5)ccn4)nn3)s2)cc1 | 42.8% | 49.6% | 
7 | CS(=O)(=O)c1ccc(-c2nc(C(=O)NCc3cn(-c4ccc(F)cn4)nn3)cs2)cc1 | 13.3% | 48.4% | 
8 | CS(=O)(=O)c1ccc(-c2nc(C(=O)NCc3cn(-c4cc(NC5CC(F)(F)C5)ccn4)nn3)cs2)cc1 |  |  | half-life [3]: > 2 h; CLint scaled [4]: 13.8 mL/min/kg; half-life [5]: 0.547 h; IC50 [6]: 55.5 nM; CLint scaled [7]: 166 mL/min/kg
9 | CS(=O)(=O)c1ccc(-c2nc(C(=O)NCc3cn(-c4cncc(Br)c4)nn3)cs2)cc1 | 17.7% | 23.9% | 
10 | COc1ccnc(-n2cc(CNC(=O)c3csc(-c4ccc(S(C)(=O)=O)cc4)n3)nn2)c1 | 6% | 20.2% | 
11 | CS(=O)(=O)c1ccc(-c2ncc(C(=O)NCc3cn(-c4cc(-c5ccc(C(F)(F)F)s5)ccn4)nn3)s2)cc1 | 18.4% | 35.6% | 
12 | CS(=O)(=O)c1ccc(-c2nc(C(=O)NCc3cn(-c4ccc(Br)nc4)nn3)cs2)cc1 | inactive | 10% | 
13 | CS(=O)(=O)c1ccc(-c2nc(C(=O)NCc3cn(-c4cc(-c5cncc(C(F)(F)F)c5)ccn4)nn3)cs2)cc1 | 30.3% | 32.5% | 
14 | CS(=O)(=O)c1ccc(-c2ncc(C(=O)NCc3cn(-c4cncc(Br)c4)nn3)s2)cc1 | 33.5% | 36.8% | 
15 | CS(=O)(=O)c1ccc(-c2nc(C(=O)NCc3cn(-c4cc(-c5cccc(C(F)(F)F)c5)ccn4)nn3)cs2)cc1 |  |  | IC50 [6]: 449 nM
16 | Clc1cccc(-n2nnnc2NCc2ccccc2Oc2ccccn2)c1Cl | 90.7% | 96.3% | 
17 | CS(=O)(=O)c1ccc(-c2nc(C(=O)NCc3cn(-c4cc(C(F)(F)F)ccn4)nn3)cs2)cc1 |  |  | half-life [3]: > 2 h; Tmax [8]: 1.83 h; half-life [9]: 4.08 h; Cmax [10]: 4530 ng/mL; CLint scaled [4]: < 12 mL/min/kg; half-life [5]: > 2 h; IC50 [6]: 70.2 nM; AUC(0-t) at 72 h [11]: 49800 ng·h/mL; CL/F [12]: 3.33 mL/min/kg; CLint scaled [7]: < 12 mL/min/kg
18 | CS(=O)(=O)c1ccc(-c2nc(C(=O)NCc3cn(-c4cc(Nc5cnn(C(F)F)c5)ccn4)nn3)cs2)cc1 | 28.7% | 11.4% | 
19 | CS(=O)(=O)c1ccc(-c2ncc(C(=O)NCc3cn(-c4cc(-c5ccc(C(F)(F)F)cc5)ccn4)nn3)s2)cc1 | inactive | inactive | 

Row | Compound | Activity [1] | Activity [2] | other results
20 | CS(=O)(=O)c1ccc(-c2nc(C(=O)NCc3cn(-c4ccnc(Br)c4)nn3)cs2)cc1 | inactive | inactive | 
21 | C[C@H](NC(=O)c1csc(-c2ccc(S(C)(=O)=O)cc2)n1)c1cn(-c2cc(C(F)(F)F)ccn2)nn1 |  |  | half-life [3]: > 2 h; Tmax [8]: 7.33 h; half-life [9]: 7.38 h; Cmax [10]: 3230 ng/mL; CLint scaled [4]: < 12 mL/min/kg; half-life [5]: > 2 h; IC50 [6]: 98.6 nM; AUC(0-t) at 72 h [11]: 107000 ng·h/mL; CL/F [12]: 1.5 mL/min/kg; CLint scaled [7]: < 12 mL/min/kg
22 | CS(=O)(=O)c1ccc(-c2ncc(C(=O)NCc3cn(-c4ccc(F)cn4)nn3)s2)cc1 | 12.4% | 25.7% | 
23 | CS(=O)(=O)c1ccc(-c2ncc(C(=O)NCc3cn(-c4cc(Nc5cnn(C(F)F)c5)ccn4)nn3)s2)cc1 | 26.6% | 32.5% | 
24 | CS(=O)(=O)c1ccc(-c2ncc(C(=O)NCc3cn(-c4ccc(Cl)cn4)nn3)s2)cc1 | inactive | 28.1% | 
25 | COc1ccnc(-n2cc(CNC(=O)c3cnc(-c4ccc(S(C)(=O)=O)cc4)s3)nn2)c1 | inactive | 9.9% | 
26 | CS(=O)(=O)c1ccc(-c2ncc(C(=O)NCc3cn(-c4cc(C(F)(F)F)ccn4)nn3)s2)cc1 |  |  | half-life [3]: > 2 h; Tmax [8]: 2 h; half-life [9]: 3.35 h; Cmax [10]: 2230 ng/mL; CLint scaled [4]: < 12 mL/min/kg; half-life [5]: > 2 h; IC50 [6]: 80.6 nM; AUC(0-t) at 72 h [11]: 14100 ng·h/mL; CL/F [12]: 11.8 mL/min/kg; CLint scaled [7]: 22.8 mL/min/kg
27 | CS(=O)(=O)c1ccc(-c2nc(C(=O)NCc3cn(-c4cc(-c5ccc(C(F)(F)F)cc5)ccn4)nn3)cs2)cc1 | 27.1% | 37% | 
28 | Cc1ccnc(-n2cc(CNC(=O)c3cnc(-c4ccc(S(C)(=O)=O)cc4)s3)nn2)c1 | 30.7% | 44.4% | 
29 | CS(=O)(=O)c1ccc(-c2nc(C(=O)NCc3cn(-c4ccc(Cl)cn4)nn3)cs2)cc1 | inactive | inactive | 
30 | CS(=O)(=O)c1ccc(-c2nc(C(=O)NCc3cn(-c4cc(N5CCC(F)(F)CC5)ccn4)nn3)cs2)cc1 |  |  | half-life [3]: 0.535 h; CLint scaled [4]: 54.2 mL/min/kg; half-life [5]: 0.333 h; IC50 [6]: 103 nM; CLint scaled [7]: 273 mL/min/kg
31 | CS(=O)(=O)c1ccc(-c2nc(C(=O)NCc3cn(-c4cc(-c5ccc(C(F)(F)F)s5)ccn4)nn3)cs2)cc1 | 24.9% | 28.7% | 
32 | CS(=O)(=O)c1ccc(-c2ncc(C(=O)NCc3cn(-c4ccnc(Br)c4)nn3)s2)cc1 | inactive | inactive | 
33 | CS(=O)(=O)c1ccc(-c2nc(C(=O)NCc3cn(-c4ccncc4Br)nn3)cs2)cc1 | 28.6% | 39.5% | 
34 | Cc1ccnc(-n2cc(CNC(=O)c3csc(-c4ccc(S(C)(=O)=O)cc4)n3)nn2)c1 | inactive | 5.1% | 
35 | CS(=O)(=O)c1ccc(-c2ncc(C(=O)NCc3cn(-c4ccc(Br)nc4)nn3)s2)cc1 | 35% | 42.8% | 
36 | CS(=O)(=O)c1ccc(-c2ncc(C(=O)NCc3cn(-c4cc(N5CCC(F)(F)CC5)ccn4)nn3)s2)cc1 |  |  | half-life [3]: 1.33 h; CLint scaled [4]: 21.8 mL/min/kg; half-life [5]: 0.987 h; IC50 [6]: 61 nM; CLint scaled [7]: 92.1 mL/min/kg
37 | CS(=O)(=O)c1ccc(-c2nc(C(=O)NCc3cn(-c4cccc(Br)n4)nn3)cs2)cc1 | 15.6% | 50% | 
